In US11292807B2 (OCEANS LTD., priority 2015, dated 2022):

Columns and labels:
[1] = system: SKOV3 (ovarian adenocarcinoma); experiment: CIMA assay, cell viability, SKOV3; details: SKOV
[2] = system: U373 (glioblastoma-astrocytoma); experiment: CIMA assay, cell viability, U373
Method: (§1) Stock solutions of the extracts were prepared in dimethylsulfoxide (DMSO) at 10 mg/mL and stored in 200 μl aliquots at −20° C. until analysis. This preparation ensured that the DMSO delivered to cells in culture never exceeded 1%.
(§2) Prepared extracts were assessed following chronic exposure conditions in which cells were seeded at 2×10^3 cells/well (96 well-plate) and incubated with test compounds for 72 h. Each compound was evaluated over a range of concentrations (0, 10, 25, 50 or 100 μg/ml). Cell proliferation was initially assessed using a standard colorimetric indicator of metabolic activity (CIMA) assay. In this assay, tetrazole reduction was evaluated as a measure of metabolic function that evaluates mitochondrial activity to determine the extent of cell proliferation within a culture. This assay is based on the reduction of yellow tetrazolium salt to purple formazan by mitochondrial reductases enzyme in viable cells, resulting in a color changed that confers a change in absorbance.

[3] = system: CCD1079SK (fibroblast, noncancerous but proliferating); experiment: CIMA assay, cell viability, CCD1079SK; details: CCD
Method: as §1, §2

[4] = CIMA assay, cell viability, CCD1079SK; details: human, Average cell viability, CCD
Method: as §1, §2

[5] = system: THP-1 (acute monocytic leukemia); experiment: CIMA assay, cell viability, THP-1
Method: as §1, §2

[6] = 10 ug/mL, listed as 169-14-15-4
[7] = 10 ug/mL, listed as 174-13-14-3
[8] = 50 ug/mL, listed as 169-14-15-4
[9] = 50 ug/mL, listed as 174-13-14-3
[10] = 100 ug/mL, listed as 169-14-15-4
[11] = 100 ug/mL, listed as 174-13-14-3
[12] = U373, 1 ug/mL, listed as 169-14-15-4
[13] = U373, 1 ug/mL, listed as 174-13-14-3
[14] = U373, 10 ug/mL, listed as 169-14-15-4
[15] = U373, 10 ug/mL, listed as 174-13-14-3
[16] = U373, 50 ug/mL, listed as 169-14-15-4
[17] = U373, 50 ug/mL, listed as 174-13-14-3
[18] = THP-1, 1 ug/mL, listed as 174-13-14-3
[19] = THP-1, 10 ug/mL, listed as 174-13-14-3
[20] = THP-1, 50 ug/mL, listed as 174-13-14-3
[21] = THP-1, 100 ug/mL, listed as 174-13-14-3

In the case of `CC/C=C\C/C=C\C/C=C\C/C=C\C/C=C\CCCC(=O)OCC(COC1OC(CO)C(O)C(O)C1O)OC(=O)CCCCCCCCCCCCCCC` (stereo not shown) [Compound 2, MGDG C20:5/C16:0], the “Fold change in viability AVG” value [1, 6] is reported as 1.02, the “Fold change in viability AVG” value [1, 7] is reported as 0.72 and the “Fold change in viability AVG” value [1, 8] is reported as 0.72. The “Fold change in viability AVG” value [1, 9] was 0.67, the “Fold change in viability AVG” value [1, 10] was 0.48 and the “Fold change in viability AVG” value [1, 11] was 0.19. For the same compound, the viability at 100 µg/mL ([2]; Homo sapiens, U373 MG, read-out: Average cell viability, U373, 100 ug/mL) was 8%, the Average cell viability [2, 12] was 106% and the “Fold change in viability AVG” value [2, 12] was 1.08. For the same compound, the Average cell viability [2, 13] was 85%, the “Fold change in viability AVG” value [2, 13] was 0.86 and the Average cell viability [2, 14] was 94%. The “Fold change in viability AVG” value [2, 14] was 0.95, the Average cell viability [2, 15] was 73% and the “Fold change in viability AVG” value [2, 15] was 0.74. The Average cell viability [2, 16] was 30%, the “Fold change in viability AVG” value [2, 16] was 0.30 and the Average cell viability [2, 17] was 13%. For the same compound, the “Fold change in viability AVG” value [2, 17] was 0.13, the “U373 AVG” value ([2]; U373, sample at 1 ug/mL, listed as 169-14-15-4) was 1.08 and the “U373 AVG” value ([2]; U373, sample at 1 ug/mL, listed as 174-13-14-3) was 0.86. For the same compound, the “U373 AVG” value ([2]; U373, sample at 10 ug/mL, listed as 169-14-15-4) was 0.95, the “U373 AVG” value ([2]; U373, sample at 10 ug/mL, listed as 174-13-14-3) was 0.74 and the “U373 AVG” value ([2]; U373, sample at 50 ug/mL, listed as 169-14-15-4) was 0.30. The “U373 AVG” value ([2]; U373, sample at 50 ug/mL, listed as 174-13-14-3) was 0.13, the “U373 AVG” value ([2]; U373, sample at 100 ug/mL) was 0.08 and the “Fold change in viability AVG” value ([2]; U373, 100 ug/mL) was 0.08. For the same compound, the “Fold change in viability AVG” value ([3]; 1 ug/mL, listed as 169-14-15-4) was 1.18, the Average cell viability ([3]; 1 ug/mL, listed as 174-13-14-3) was 101% and the “Fold change in viability AVG” value ([3]; 1 ug/mL, listed as 174-13-14-3) was 1.11. For the same compound, the “Fold change in viability AVG” value [3, 6] was 1.08, the Average cell viability [3, 7] was 89% and the “Fold change in viability AVG” value [3, 7] was 0.98. The “Fold change in viability AVG” value [3, 8] was 0.36, the Average cell viability [3, 9] was 20% and the “Fold change in viability AVG” value [3, 9] was 0.22. The “Fold change in viability AVG” value [3, 10] was 0.14, the Average cell viability [3, 11] was 14% and the “Fold change in viability AVG” value [3, 11] was 0.15. For the same compound, the viability at 72 h, 1 ug/mL ([4]; CCD1079SK fibroblast cells (noncancerous, proliferating), 1 ug/mL) was 107%, the viability at 72 h, 10 ug/mL ([4]; CCD1079SK fibroblasts (noncancerous, proliferating), 10 ug/mL) was 99% and the viability at 72 h, 50 ug/mL ([4]; CCD1079SK fibroblasts (noncancerous, proliferating), 50 ug/mL) was 32%. The viability at 72 h, 100 ug/mL ([4]; CCD1079SK fibroblasts (noncancerous, proliferating), 100 ug/mL) was 13%, the viability at 1 µg/mL ([5]; Homo sapiens, THP-1, read-out: Average cell viability, THP-1, 1 ug/mL) was 102% and the viability at 10 µg/mL ([5]; Homo sapiens, THP-1, read-out: Average cell viability, THP-1, 10 ug/mL) was 101%. The viability at 50 µg/mL ([5]; Homo sapiens, THP-1, read-out: Average cell viability, THP-1, 50 ug/mL) was 27%, the viability at 100 µg/mL ([5]; Homo sapiens, THP-1, read-out: Average cell viability, THP-1, 100 ug/mL) was 17% and the “Fold change in viability AVG” value ([5]; THP-1, 1 ug/mL, listed as 169-14-15-4) was 1.16. For the same compound, the Average cell viability [5, 18] was 91%, the “Fold change in viability AVG” value [5, 18] was 1.03 and the “Fold change in viability AVG” value ([5]; THP-1, 10 ug/mL, listed as 169-14-15-4) was 1.14. The Average cell viability [5, 19] was 88%, the “Fold change in viability AVG” value [5, 19] was 1.00 and the “Fold change in viability AVG” value ([5]; THP-1, 50 ug/mL, listed as 169-14-15-4) was 0.31. The Average cell viability [5, 20] was 21%, the “Fold change in viability AVG” value [5, 20] was 0.24 and the “Fold change in viability AVG” value ([5]; THP-1, 100 ug/mL, listed as 169-14-15-4) was 0.19. For the same compound, the Average cell viability [5, 21] was 21%, the “Fold change in viability AVG” value [5, 21] was 0.23 and the “THP-1 AVG” value ([5]; THP-1, sample at 1 ug/mL, listed as 169-14-15-4) was 1.16. For the same compound, the “THP-1 AVG” value ([5]; THP-1, sample at 1 ug/mL, listed as 174-13-14-3) was 1.03, the “THP-1 AVG” value ([5]; THP-1, sample at 10 ug/mL, listed as 169-14-15-4) was 1.14 and the “THP-1 AVG” value ([5]; THP-1, sample at 10 ug/mL, listed as 174-13-14-3) was 1.00. For the same compound, the “THP-1 AVG” value ([5]; THP-1, sample at 50 ug/mL, listed as 169-14-15-4) was 0.31, the “THP-1 AVG” value ([5]; THP-1, sample at 50 ug/mL, listed as 174-13-14-3) was 0.24 and the “THP-1 AVG” value ([5]; THP-1, sample at 100 ug/mL, listed as 169-14-15-4) was 0.19. The “THP-1 AVG” value ([5]; THP-1, sample at 100 ug/mL, listed as 174-13-14-3) was 0.23.
